The target of experiment [1] is T1, PSMA-expressing C4-2 cells (Homo sapiens, UniProt Q04609).
T1 construct: PSMA-expressing C4-2 cells (ATCC, Cat. No. CRL-3314) were cultured in RPMI-1640; host or cells: C4-2 cells
Briefly: FACS binding assay (competition with 50 nM PSM-0183). Conditions: FACS binding, C4-2 cells, competition with 50 nM PSM-0183; category; read-out: pIC50 [C4-2] CAT (converted). As to the method:
In order to determine binding of compounds according to the present invention to PSMA-expressing cells, a FACS binding assay was established.
PSMA-expressing C4-2 cells (ATCC, Cat. No. CRL-3314) were cultured in RPMI-1640 (Pan Biotech, Cat. No. P04-18050) including 10% fetal calf serum (Biochrom) and 100 U/ml penicillin and 100 μg/mL streptomycin (Sigma, Cat. No. P0781). Cells were detached with Accutase (Biolegend, Cat. No. BLD-423201) and washed in FACS buffer (PBS (Sigma, Cat. No. D8537) including 1% fetal calf serum). Cells were diluted in FACS buffer to a final concentration of 500,000 cells per mL. 200 μL of the cell suspension were transferred to a u-shaped non-binding 96-well plate (Greiner Bio-One, Cat. No. 650901) and cells were washed in ice-cold FACS buffer.
For IC50 determination, C4-2 cells were incubated with 50 nM PSM-0183 (Ac-Thr-Aib-Phe[Cys-Lys-Arg-Aib-Asn-Cys]-Tle-Thr-Asp-Ttds-Ttds-AF488N3K-NH2) in the presence of increasing concentrations of test compounds at 4° C. for 1 hour. After two wash steps with ice-cold FACS buffer, cells were analyzed in an Attune NxT flow cytometer. Median fluorescence intensities (MFI) of the FITC/AF488-channel were calculated by Attune NxT software. MFI values were plotted against peptide concentration and four parameter logistic (4PL) curve fitting and IC50/pIC50 calculations were performed using ActivityBase software (IDBS).

In experiment [2] the target is T2, Fc-fusion protein of human PSMA (hPSMA-Fc) (Homo sapiens, UniProt Q04609).
T2 construct: purchased Acro Biosystems PSA-H5264
T2 sequence (Q04609 44-750 limits assumed): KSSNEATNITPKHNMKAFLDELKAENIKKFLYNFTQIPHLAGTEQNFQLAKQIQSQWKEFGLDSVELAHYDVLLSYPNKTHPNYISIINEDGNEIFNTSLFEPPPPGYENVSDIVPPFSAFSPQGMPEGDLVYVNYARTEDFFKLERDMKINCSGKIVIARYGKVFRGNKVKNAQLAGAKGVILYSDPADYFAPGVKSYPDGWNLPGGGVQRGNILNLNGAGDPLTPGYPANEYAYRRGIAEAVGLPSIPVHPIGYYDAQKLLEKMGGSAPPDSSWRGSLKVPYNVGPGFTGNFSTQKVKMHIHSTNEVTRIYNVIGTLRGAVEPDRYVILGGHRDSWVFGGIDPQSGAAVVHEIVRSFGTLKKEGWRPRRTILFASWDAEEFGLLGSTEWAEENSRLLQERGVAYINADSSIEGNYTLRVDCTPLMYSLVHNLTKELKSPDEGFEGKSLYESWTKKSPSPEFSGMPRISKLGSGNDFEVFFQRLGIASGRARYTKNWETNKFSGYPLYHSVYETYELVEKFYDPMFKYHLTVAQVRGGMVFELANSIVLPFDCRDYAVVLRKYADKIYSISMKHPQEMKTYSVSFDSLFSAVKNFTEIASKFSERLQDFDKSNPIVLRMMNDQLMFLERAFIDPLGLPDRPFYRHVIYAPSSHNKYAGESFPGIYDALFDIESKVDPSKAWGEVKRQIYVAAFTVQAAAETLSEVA
Nature of the experiment: Surface plasmon resonance assay (Biacore T200, single cycle kinetic). Type of experiment: binding. Conditions: SPR, hPSMA-Fc, single cycle kinetic, 25° C.; category; read-out: pKD CAT (converted). As to the method:
Surface plasmon resonance (SPR) studies were performed using a Biacore™ T200 SPR system. Briefly, polarized light is directed towards a gold-labeled sensor surface, and minimum intensity reflected light is detected. The angle of reflected light changes as molecules bind and dissociate.
Fc-fusion protein of human PSMA (hPSMA-Fc, Acro Biosystems, Cat #PSA-H5264) was captured on a Fc-capture chip (Biacore™ CM5 sensor chip coated with ˜300 RU of an Fc-binding peptide). hPSMA-Fc was diluted in Running Buffer (HBST, 0.1% DMSO) to a final concentration of 100 nM and then flushed over the Fc-capture chip to immobilized ˜1000 RUs.
Stock solutions of test compounds were prepared by dissolving each compound in DMSO. DMSO stock solution were diluted 1:1000 in Running Buffer without DMSO. Further sequential dilutions were made with Running Buffer containing 0.1% DMSO. SPR binding analyses were performed in Single Cycle Kinetic (SCK) mode at 25° C. Flow cell coated with the Fc-binding peptide only served as reference flowcell. After each SCK run, hPSMA-Fc was removed with 10 mM glycine buffer, pH 1.5.
In between every three SCK measurements, a blank run with Running Buffer instead of test compound was included to correct for baseline drifts (double blanking method).
Table 5 describes the protocol steps for Fc-fusion target capturing and assessment of the binding kinetics.
For each test compound, SPR raw data in the form of resonance units (RU) were plotted as sensorgrams using the Biacore™ T200 control software. The signal from the blank sensorgram was subtracted from that of the test compound sensorgram (blank corrected). The blank corrected sensorgram was corrected for baseline drift by subtracting the sensorgram of a SCK run without the test compound (running buffer only). The dissociation constant (KD) was calculated from Blank-normalized SPR data using the 1:1 Langmuir binding model from the Biacore™ Insight Evaluation software. The pKD value (negative decadic logarithm of dissociation constant) was calculated using Microsoft Excel.

Each structure is given as a SMILES string. Numbered stars: 1 amine (or outer) side, 2 acyl side, 3 side chain; on linkers, the order of the positions; unused ones are H or OH. Bridge positions count the residues as written; N and C are the ends. Square brackets hold non-standard residues; d marks the D form. Peptide text beside a SMILES is read from it. * marks the point of attachment. X3 = O=C(O)CN1CCN(CC(=O)O)CCN(CC(=O)NCCCOCCOCCOCCCN*)CCN(CC(=O)O)CC1; DOTA = O=C(O)CN1CCN(CC(=O)O)CCN(CC(=O)*)CCN(CC(=O)O)CC1; Phe(4-Cl) = N[C@@H](Cc1ccc(Cl)cc1)C(=O)O; X1 = O=C(CC1CCN([*:1])CC1)[*:2]; Lys(Me) = CNCCCC[C@H](N)C(=O)O; Suc = O=C(CCC(=O)[*:2])[*:1]; Tle = CC(C)(C)[C@H](N)C(=O)O; 4Amb = NCc1ccc(C(=O)O)cc1; Nle = CCCC[C@H](N)C(=O)O; Aib = CC(C)(N)C(=O)O Where only a bound is given, the exact number is not on record here.

T1 sequence (Q04609 whole entry): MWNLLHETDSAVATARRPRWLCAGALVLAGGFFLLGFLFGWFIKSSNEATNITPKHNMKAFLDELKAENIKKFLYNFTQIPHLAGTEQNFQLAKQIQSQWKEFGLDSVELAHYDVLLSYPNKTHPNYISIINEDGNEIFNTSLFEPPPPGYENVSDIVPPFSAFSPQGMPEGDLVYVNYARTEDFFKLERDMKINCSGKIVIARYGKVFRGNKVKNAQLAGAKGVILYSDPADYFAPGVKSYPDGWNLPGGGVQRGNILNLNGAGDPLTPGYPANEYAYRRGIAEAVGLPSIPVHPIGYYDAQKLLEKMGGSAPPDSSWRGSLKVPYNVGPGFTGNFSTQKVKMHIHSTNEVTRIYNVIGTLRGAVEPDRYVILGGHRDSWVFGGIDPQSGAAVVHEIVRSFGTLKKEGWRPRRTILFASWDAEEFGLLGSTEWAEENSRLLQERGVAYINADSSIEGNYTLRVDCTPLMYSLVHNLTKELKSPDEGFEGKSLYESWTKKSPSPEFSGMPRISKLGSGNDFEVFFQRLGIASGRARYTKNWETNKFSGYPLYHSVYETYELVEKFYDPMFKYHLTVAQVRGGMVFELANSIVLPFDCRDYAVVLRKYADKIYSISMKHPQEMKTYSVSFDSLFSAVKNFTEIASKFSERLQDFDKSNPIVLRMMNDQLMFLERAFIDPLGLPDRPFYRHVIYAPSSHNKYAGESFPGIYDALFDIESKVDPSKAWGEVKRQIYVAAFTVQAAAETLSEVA

As to `C[C@@H]1NC(=O)[C@H](CCCNC(=N)N)NC(=O)[C@H](CCCCN)NC(=O)[C@@H](NC(=O)[C@H](Cc2ccccc2)NC(=O)C(C)(C)NC(=O)[C@@H](NC(=O)CCC(=O)NCCCOCCOCCOCCCNC(=O)CN2CCN(CC(=O)O)CCN(CC(=O)O)CCN(CC(=O)O)CC2)[C@@H](C)O)CSSC[C@@H](C(=O)N[C@H](C(=O)N[C@H](C(=O)N[C@@H](CC(=O)O)C(N)=O)[C@@H](C)O)C(C)(C)C)NC(=O)[C@H](CC(N)=O)NC1=O` [PSM-0193, DOTA-Ttds-Thr-Aib-Phe-[Cys-Lys-Arg-Ala-Asn-Cys]-Tle-Thr-Asp-NH2] ({X3-Suc}-T[Aib]FCKRANC[Tle]TD-NH2; disulfide 4-9), the IC50 in experiment [1] is less than 200 nM. The Kd in experiment [2] is less than 12.6 nM.

Turning to `CCCC[C@H](NC(=O)[C@@H]1CSSC[C@H](NC(=O)[C@H](Cc2ccccc2)NC(=O)[C@H](C)NC(=O)[C@@H](NC(C)=O)[C@@H](C)O)C(=O)N[C@@H](CCCCN)C(=O)N[C@@H](CCCNC(=N)N)C(=O)N[C@@H](CCC(=O)O)C(=O)N[C@@H](CC(N)=O)C(=O)N1)C(=O)N[C@@H](C(=O)N[C@H](CC(=O)O)C(N)=O)[C@H](C)O` [PSM-0197, Ac-Thr-Ala-Phe-[Cys-Lys-Arg-Glu-Asn-Cys]-Nle-Thr-Asp-NH2] (Ac-TAFCKRENC[Nle][dT][dD]-NH2; disulfide 4-9), the IC50 in experiment [1] is less than 200 nM. Besides, the Kd in experiment [2] is 12.6 to 126 nM.

As to `C[C@@H](O)[C@H](NC(=O)[C@@H](NC(=O)[C@@H]1CSSC[C@H](NC(=O)[C@H](Cc2ccccc2)NC(=O)C(C)(C)NC(=O)[C@@H](NC(=O)CC2CCN(C(=O)CN3CCN(CC(=O)O)CCN(CC(=O)O)CCN(CC(=O)O)CC3)CC2)C(C)(C)C)C(=O)N[C@@H](CCCCN)C(=O)N[C@@H](CCCNC(=N)N)C(=O)NC(C)(C)C(=O)N[C@@H](CC(N)=O)C(=O)N1)C(C)(C)C)C(N)=O` [PSM-0198, DOTA-Cmp-Tle-Aib-Phe-[Cys-Lys-Arg-Aib-Asn-Cys]-Tle-Thr-NH2] ({DOTA}-[X1][Tle][Aib]FCKR[Aib]NC[Tle]T-NH2; disulfide 5-10), in experiment [1], the IC50 is 1260 to 3160 nM. In experiment [2], the Kd was 126 to 501 nM.

As for `CNCCCC[C@@H]1NC(=O)[C@@H](NC(=O)[C@H](Cc2ccc(Cl)cc2)NC(=O)C(C)(C)NC(=O)[C@@H](NC(=O)CC2CCN(C(=O)CN3CCN(CC(=O)O)CCN(CC(=O)O)CCN(CC(=O)O)CC3)CC2)[C@@H](C)O)CSSC[C@@H](C(=O)N[C@H](C(N)=O)C(C)(C)C)NC(=O)[C@H](CC(N)=O)NC(=O)C(C)(C)NC(=O)[C@H](CCCNC(=N)N)NC1=O` [PSM-0200, DOTA-Cmp-Thr-Aib-Pcf-[Cys-Lys(Me)-Arg-Aib-Asn-Cys]-Tle-NH2] ({DOTA}-[X1]T[Aib][Phe(4-Cl)]C[Lys(Me)]R[Aib]NC[Tle]-NH2; disulfide 5-10), the IC50 in experiment [1] is less than 200 nM. Besides, in experiment [2], the Kd was less than 12.6 nM.

Consider `C[C@@H]1NC(=O)[C@H](CCCNC(=N)N)NC(=O)[C@H](CCCCN)NC(=O)[C@@H](NC(=O)[C@H](Cc2ccccc2)NC(=O)[C@H](C)NC(=O)[C@@H](NC(=O)CCC(=O)NCCCOCCOCCOCCCNC(=O)CN2CCN(CC(=O)O)CCN(CC(=O)O)CCN(CC(=O)O)CC2)[C@@H](C)O)CSSC[C@@H](C(N)=O)NC(=O)[C@H](CC(N)=O)NC1=O` [PSM-0201, DOTA-Ttds-Thr-Ala-Phe-[Cys-Lys-Arg-Ala-Asn-Cys]-NH2] ({X3-Suc}-TAFCKRANC-NH2; disulfide 4-9), for which the IC50 in experiment [1] is more than 3160 nM. For the same molecule, the Kd in experiment [2] was more than 501 nM.

With `C[C@@H](O)[C@H](NC(=O)[C@@H](NC(=O)[C@@H]1CSSC[C@H](NC(=O)[C@H](Cc2ccccc2)NC(=O)C(C)(C)NC(=O)[C@@H](NC(=O)c2ccc(CNC(=O)CN3CCN(CC(=O)O)CCN(CC(=O)O)CCN(CC(=O)O)CC3)cc2)[C@@H](C)O)C(=O)N[C@@H](CCCCN)C(=O)N[C@@H](CCCNC(=N)N)C(=O)NC(C)(C)C(=O)N[C@@H](CC(N)=O)C(=O)N1)C(C)(C)C)C(N)=O` [PSM-0202, DOTA-Pamb-Thr-Aib-Phe-[Cys-Lys-Arg-Aib-Asn-Cys]-Tle-Thr-NH2] ({DOTA-4Amb}-T[Aib]FCKR[Aib]NC[Tle]T-NH2; disulfide 4-9), the IC50 in experiment [1] is less than 200 nM. Also, in experiment [2], the Kd is less than 12.6 nM.
